Laboratory results: patent EP4644396A1 (Visionpharma (Nantong) Co., Ltd, priority 2022, dated 2024)

These compounds were tested against T1, human TLR7 (Homo sapiens, UniProt Q9NYK1) (assay: HEK-Blue hTLR7 SEAP reporter gene inhibition assay). Conditions: HEK-Blue hTLR7 IC50 (µM).
T1 sequence (Q9NYK1 27-1049): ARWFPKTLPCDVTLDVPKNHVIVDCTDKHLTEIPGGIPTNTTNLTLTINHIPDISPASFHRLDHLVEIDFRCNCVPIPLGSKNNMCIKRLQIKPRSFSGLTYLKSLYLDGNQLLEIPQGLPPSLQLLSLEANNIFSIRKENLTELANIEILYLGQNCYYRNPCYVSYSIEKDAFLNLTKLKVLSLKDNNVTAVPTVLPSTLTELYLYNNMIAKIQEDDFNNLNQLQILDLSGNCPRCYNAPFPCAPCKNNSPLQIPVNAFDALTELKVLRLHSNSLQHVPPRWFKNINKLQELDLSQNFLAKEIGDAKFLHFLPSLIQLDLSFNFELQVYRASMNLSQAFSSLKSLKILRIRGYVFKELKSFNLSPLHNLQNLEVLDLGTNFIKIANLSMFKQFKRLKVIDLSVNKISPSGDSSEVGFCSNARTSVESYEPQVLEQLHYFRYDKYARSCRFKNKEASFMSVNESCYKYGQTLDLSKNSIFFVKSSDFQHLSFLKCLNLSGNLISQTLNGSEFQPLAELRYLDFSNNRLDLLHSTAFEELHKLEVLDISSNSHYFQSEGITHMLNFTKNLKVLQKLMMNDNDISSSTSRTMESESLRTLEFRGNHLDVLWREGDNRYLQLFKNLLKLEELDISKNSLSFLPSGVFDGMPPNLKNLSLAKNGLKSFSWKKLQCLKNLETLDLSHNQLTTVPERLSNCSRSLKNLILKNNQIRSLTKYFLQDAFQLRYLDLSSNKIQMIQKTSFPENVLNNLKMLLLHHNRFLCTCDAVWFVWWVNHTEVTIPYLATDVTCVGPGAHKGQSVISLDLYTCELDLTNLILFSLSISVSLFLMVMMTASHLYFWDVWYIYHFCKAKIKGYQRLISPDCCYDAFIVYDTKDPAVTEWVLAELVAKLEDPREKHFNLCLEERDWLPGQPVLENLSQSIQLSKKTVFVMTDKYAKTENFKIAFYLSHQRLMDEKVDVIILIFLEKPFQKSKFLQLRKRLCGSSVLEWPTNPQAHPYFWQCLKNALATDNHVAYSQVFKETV
Format: cell-based
Protocol: (§1) HEK-Blue cells with stable expression of human TLR7 or TLR8 were used in the evaluation of inhibitory activity of compounds in the present invention against TLR7 or TLR8, by using its ability to induce the SEAP reporting gene under the control of the fusion of IFN-β minimum promoters into five NF-κB and ap-1 binding sites, as follows: hTLR7 HEK-Blue cells (Invivogen, 80, 000 cells per well) or hTLR8 HEK-Blue cells (60, 000 cells per well) were added to a 96-well cell culture plate. A solution of the testing compounds were added to each well, with the final concentration of tested compounds in the medium ranged from 0.001 to 36 µM and the culture was incubated for 15 minutes. M5049 was used as positive controls in the testing.
(§2) Then a TLR7 ligand (Gardiquimod, purchased from MedChemExpress, with final concentration of ligand in cell culture medium kept at 10 µM) or a TLR8 ligand (purchased from MedChemExpress with final concentration in cell culture media at 10 µM) and the culture was incubated for 20 hours. According to the manufacturer's instructions, a HEK-Blue reagent Quanti-blue (Invivogen) was used to detect the SEAP levels in cell cultures. The half […] concentration or IC50 was calculated by using GraphPad Prism. […] Table 1: Activities of examples in this invention to hTLR7/8 in HEK-Blue Cells

| Compound | IC50 |
| --- | --- |
| C[C@@H]1CN(c2ccc(C#N)n3ncc(F)c23)Cc2c3c(nn21)CCN(Cc1cn[nH]c1)C3 [Example I-54, (R)-4-(2-((1H-Pyrazole-4-yl)methyl) -7-methyl-1,3,4,7,8,10-hexahydropyridine[4 ', 3 ': 3, 4]pyrazole [1,5-a]pyrazine-9 (2H) -yl) -3-fluoropyrazole [1,5-a] pyridine-7-nitrile] | < 0.05 µM |
| C[C@@H]1CN(c2ccc(C#N)n3ncc(F)c23)Cc2c3c(nn21)CCN(CC(F)F)C3 [Example I-56, (R)-4-(2-(2,2-difluoroethyl) -7-methyl-1,3,4,7,8, 10-hexahydropyridine [4 ', 3 ': 3, 4]pyrazole [1,5-a]pyrazine-9 (2H) -yl) -3-fluoropyrazole [1,5-a] pyridine-7-nitrile] | > 0.05 µM |
| C[C@@H]1CN(c2ccc(C#N)n3ncc(F)c23)Cc2c3c(nn21)CCN(Cc1ccn[nH]1)C3 [Example I-62] | > 0.05 µM |
| C[C@@H]1CN(c2ccc(C#N)n3ncc(F)c23)Cc2c3c(nn21)CN(CC(=O)N1CC2(COC2)C1)[C@@H](C)C3 [Example I-112, 4-((4R, 9S) -4,9-dimethyl-8-(2-oxydioxy-2-(2-oxytrioxy-6-nitrous [3.3]helium-6-ethyl)ethyl) -3,4,7,8,9, 10-hydropyridine [3 ', 4 ': 3, 4]pyrazole [1,5-a]pyrazine-2 (1 H) - yl) -3-fluoropyrazole [1,5-a] pyridine-7-nitrile] | > 0.05 µM |
| C[C@@H]1CN(c2ccc(C#N)n3ncc(F)c23)Cc2c3c(nn21)CN(CC(=O)N1CCNCC1)[C@@H](C)C3 [Example I-113] | < 0.05 µM |

Same assay, conditions: hTLR7 HEK-Blue cells, TLR7 ligand Gardiquimod 10 µM, 20 hours, SEAP by Quanti-blue; class symbols; read-out: HEK-Blue hTLR7 IC50

| IC50 | Compound |
| --- | --- |
| > 0.05 µM | C[C@@H]1CN(c2ccc(C#N)n3ncc(F)c23)Cc2c3c(nn21)CCC(N)C3 (stereo partly drawn) [Example I-9, 4-((4R)-9-amino-4-methyl-3,4,7,8,9,10-hexahydropyrazino[1,2-b]indazol-2(1H)-yl)-3-fluoropyrazolo[1,5-a]pyridine-7-carbonitrile] |
| > 0.05 µM | CC(C)N1CCc2c(nn3c2CN(c2ccc(C#N)n4ncc(F)c24)C[C@H]3C)C1 [Example I-23, (R)-3-Fluoro-4-(8-isopropyl-4-methyl-3,4,7,8,9,10-hexahydropyrido[3',4':3,4]pyrazolo[1,5-a]pyrazin-2(1H)-yl)pyrazolo[1,5-a]pyridine-7-carbonitrile] |
| < 0.05 µM | CCN1CCc2nn3c(c2C1)CN(c1ccc(C#N)n2ncc(F)c12)C[C@H]3C [Example I-25, (R)-4-(2-ethyl-7-methyl-1,3,4,7,8,10-hexahydropyrido[4',3':3,4]pyrazolo[1,5-a]pyrazin-9(2H)-yl)-3-fluoropyrazolo[1,5-a]pyridine-7-carbonitrile] |
| > 0.05 µM | C[C@@H]1CN(c2ccc(C#N)n3ncc(F)c23)Cc2c3c(nn21)CCN(C1CCC1)C3 [Example I-49, (R)-4-(2-cyclobutyl-7-methyl-1,3,4,7,8,10-hexahydropyrido[4',3':3,4]pyrazolo[1,5-a]pyrazin-9(2H)-yl)-3-fluoropyrazolo[1,5-a]pyridine-7-carbonitrile] |
| < 0.05 µM | CC(C)N1CCc2nn3c(c2C1)CN(c1ccc(C#N)n2ncc(F)c12)C[C@H]3C [Example I-53, (R)-3-Fluoro-4-(2-isopropyl-7-methyl-1,3,4,7,8,10-hexahydropyrido[4',3':3,4]pyrazolo[1,5-a]pyrazin-9(2H)-yl)pyrazolo[1,5-a]pyridine-7-carbonitrile] |
| > 0.05 µM | C[C@@H]1CN(c2ccc(C#N)n3ncc(F)c23)Cc2c3c(nn21)CCN(Cc1cnn(C)c1)C3 [Example I-67, (R)-3-Fluoro-4-(7-methyl-2-((1-methyl-1H-pyrazol-4-yl)methyl)-1,3,4,7,8,10-hexahydropyrido[4',3':3,4]pyrazolo[1,5-a]pyrazin-9(2H)-yl)pyrazolo[1,5-a]pyridine-7-carbonitrile] |
| > 0.05 µM | C[C@@H]1CN(c2ccc(C#N)n3ncc(F)c23)Cc2c3c(nn21)CCC(C)(N)C3 (stereo partly drawn) [Example I-80, 4-((4R)-9-Amino-4,9-dimethyl-3,4,7,8,9,10-hexahydropyrazino[1,2-b]indazol-2(1H)-yl)-3-fluoropyrazolo[1,5-a]pyridine-7-carbonitrile] |
| < 0.05 µM | C[C@@H]1CN(c2ccc(C#N)n3ncc(F)c23)Cc2c3c(nn21)CN[C@H](CC#N)C3 [Example I-86, 4-((4R,9S)-9-(cyanomethyl)-4-methyl-3,4,7,8,9,10-hexahydropyrido[3',4':3,4]pyrazolo[1,5-a]pyrazin-2(1H)-yl)-3-fluoropyrazolo[1,5-a]pyridine-7-carbonitrile] |
| < 0.05 µM | C[C@@H]1CN(c2ccc(C#N)n3ncc(F)c23)Cc2c3c(nn21)CN(CC(=O)N(C)C)[C@@H](C)C3 [Example I-102, 2-((4R,9S)-2-(7-cyano-3-fluoropyrazolo[1,5-a]pyridin-4-yl)-4,9-dimethyl-1,2,3,4,9,10-hexahydropyrido[3',4':3,4]pyrazolo[1,5-a]pyrazin-8(7H)-yl)-N,N-dimethylacetamide] |
| > 0.05 µM | C[C@@H]1CN(c2ccc(C#N)n3ncc(F)c23)Cc2c3c(nn21)CN(Cc1ncco1)[C@@H](C)C3 [Example I-133, 4-((4R,9S)-4,9-dimethyl-8-(oxazol-2-ylmethyl)-3,4,7,8,9,10-hexahydropyrido[3',4':3,4]pyrazolo[1,5-a]pyrazin-2(1H)-yl)-3-fluoropyrazolo[1,5-a]pyridine-7-carbonitrile] |

More lines, now with the values behind:

| Compound | IC50 |
| --- | --- |
| 3-((4R,9S)-2-(7-cyano-3-fluoropyrazolo[1,5-a]pyridin-4-yl)-4,9-dimethyl-1,2,3,4,9,10-hexahydropyrido[3',4':3,4]pyrazolo[1,5-a]pyrazin-8(7H)-yl)cyclobutane-1-carboxamide [Example I-164] | < 0.05 µM |
| CNC(=O)CN1Cc2nn3c(c2C[C@@H]1C)CN(c1ccc(C#N)n2ncc(F)c12)C[C@H]3C [Example I-101, 2-((4R,9S)-2-(7-cyanide-3-fluoropyridox and [1,5-a]pyridox-4-base)-4,9-dimethyl-1,2,3,4,9, 10-hydropyridox [3 ', 4 ': 3, 4]pyrazolo [1,5-a]pyrazine-8 (7 H) -yl)-N-methyl acetamide] | > 0.05 µM |

Each compound was assayed against T2, human TLR8 (Homo sapiens, UniProt Q9NR97) (assay: HEK-Blue hTLR8 SEAP reporter gene inhibition assay). Conditions: hTLR8 HEK-Blue cells, TLR8 ligand 10 µM, 20 hours, SEAP by Quanti-blue; class symbols; read-out: HEK-Blue hTLR8 IC50.
T2 construct: expressed in transfected cells
T2 sequence (Q9NR97 27-1041): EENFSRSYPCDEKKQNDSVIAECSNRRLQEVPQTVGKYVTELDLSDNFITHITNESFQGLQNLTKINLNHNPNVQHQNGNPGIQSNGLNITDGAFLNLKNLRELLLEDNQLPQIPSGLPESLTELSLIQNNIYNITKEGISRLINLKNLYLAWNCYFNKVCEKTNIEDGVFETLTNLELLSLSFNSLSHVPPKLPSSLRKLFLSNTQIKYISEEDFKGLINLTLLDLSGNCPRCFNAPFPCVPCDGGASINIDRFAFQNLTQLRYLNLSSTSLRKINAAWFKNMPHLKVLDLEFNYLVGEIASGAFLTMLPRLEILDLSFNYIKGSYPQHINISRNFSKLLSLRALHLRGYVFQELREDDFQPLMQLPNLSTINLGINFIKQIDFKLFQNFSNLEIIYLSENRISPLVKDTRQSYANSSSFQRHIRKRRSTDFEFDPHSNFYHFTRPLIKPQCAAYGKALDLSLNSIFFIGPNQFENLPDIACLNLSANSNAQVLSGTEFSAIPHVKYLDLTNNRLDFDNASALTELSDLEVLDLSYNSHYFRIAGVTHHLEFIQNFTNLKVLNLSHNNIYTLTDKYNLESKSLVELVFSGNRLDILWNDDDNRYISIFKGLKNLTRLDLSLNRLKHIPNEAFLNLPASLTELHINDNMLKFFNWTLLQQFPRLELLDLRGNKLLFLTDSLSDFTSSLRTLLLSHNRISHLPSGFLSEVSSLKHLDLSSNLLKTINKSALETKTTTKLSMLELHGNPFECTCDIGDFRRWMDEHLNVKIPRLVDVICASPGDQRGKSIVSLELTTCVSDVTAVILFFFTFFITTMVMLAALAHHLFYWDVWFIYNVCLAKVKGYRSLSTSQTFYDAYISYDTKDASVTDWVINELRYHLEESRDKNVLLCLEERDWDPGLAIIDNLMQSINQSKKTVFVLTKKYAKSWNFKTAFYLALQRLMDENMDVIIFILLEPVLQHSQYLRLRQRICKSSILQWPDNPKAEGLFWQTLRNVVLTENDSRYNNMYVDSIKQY
Format: cell-based
Protocol: as §1, §2

| Compound | IC50 |
| --- | --- |
| 3-((4R,9S)-2-(7-cyano-3-fluoropyrazolo[1,5-a]pyridin-4-yl)-4,9-dimethyl-1,2,3,4,9,10-hexahydropyrido[3',4':3,4]pyrazolo[1,5-a]pyrazin-8(7H)-yl)cyclobutane-1-carboxamide [Example I-164] | > 0.1 µM |
